Experimental data: ChEMBL document CHEMBL3872245, “A novel curcumin derivative which inhibits P-glycoprotein, arrests cell cycle and induces apoptosis in multidrug resistance cells” (Bioorg Med Chem, 2017)
The source made the active and inactive calls. No cut-off for these calls is given here.

What was measured:
[1] = Chemical stability of the compound in pH 7.4 phosphate buffered saline at 10^-4 M incubated for overnight by HPLC method; assay type: physicochemical; conditions: buffer, pH 7.4, 100 µM
[2] = test system: K562; assay: Inhibition of P-gp in doxorubicin resistant human K562 cells assessed as increase in accumulation of rhodamine 123 at 10 uM measured after 1 hr by flow cytometry; assay type: cell-based
[3] = Down regulation of p-gp expression in doxorubicin resistant human K562 cells at 2.7 to 4.1 uM measured after 48 hrs by Western blot method; assay type: functional, cell-based
[4] = Cell cycle arrest in doxorubicin resistant human K562 cells assessed as accumulation at G2/M phase at 4.1 to 5.4 uM measured after 48 hrs by propidium iodide staining based flow cytometry; assay type: functional
[5] = Chemical stability of the compound in pH 6.7 potassium phosphate buffer at 10^-4 M incubated for overnight by HPLC method; assay type: physicochemical; conditions: pH 6.7, 100 µM
[6] = Antiproliferative activity against human NCI-H460 cells measured after 48 hrs by sulforhodamine B assay; assay type: functional; conditions: NCI-H460, 48 h
[7] = test system: K562; assay: Inhibition of P-gp in doxorubicin resistant human K562 cells assessed as reduction in cell viability measured after 48 hrs by Presto blue assay; assay type: cell-based
[8] = Cell cycle arrest in doxorubicin resistant human K562 cells assessed as decrease in G0/G1 phase at 2.7 uM measured after 48 hrs by propidium iodide staining based flow cytometry; assay type: functional
[9] = Stability of the compound in HEPES medium at 1.5 10^-3 M incubated for 5 to 30 mins under dark condition by HPLC method; assay type: physicochemical
[10] = Stability of the compound at -20 degreeC at 10^-4 M incubated for 6 to 12 days under dark condition by HPLC method; assay type: physicochemical; conditions: 100 µM
[11] = Chemical stability of the compound in pH 1 HCl buffer at 10^-4 M incubated for 75 mins by HPLC method; assay type: physicochemical; conditions: pH 1, 1.25 h, 100 µM
[12] = Antiproliferative activity against human K562 cells measured after 48 hrs by Presto blue assay; assay type: functional; conditions: K562, 48 h
[13] = Stability of the compound in RPMI medium at 1.5 10^-3 M incubated for 5 to 30 mins under dark condition by HPLC method; assay type: physicochemical
[14] = Stability of the compound at room temperature at 10^-4 M incubated for 6 to 12 days under dark condition by HPLC method; assay type: physicochemical; conditions: 100 µM
[15] = Cell cycle arrest in doxorubicin resistant human K562 cells assessed as increase in G2/M phase at 2.7 uM measured after 48 hrs by propidium iodide staining based flow cytometry; assay type: functional
[16] = test system: K562; assay: Induction of apoptosis in doxorubicin resistant human K562 cells at 5.4 uM by Annexin V-FITC/propidium iodide staining based flow cytometry; assay type: functional
[17] = test system: K562; assay: Induction of apoptosis in doxorubicin resistant human K562 cells assessed as increase in PARP-1 cleavage at 2.7 to 5.4 uM measured after 48 hrs by Western blot method; assay type: functional, cell-based
[18] = test system: K562; assay: Induction of apoptosis in doxorubicin resistant human K562 cells assessed as decrease in pro-caspase 3 level at 2.7 to 5.4 uM measured after 48 hrs by Western blot method; assay type: functional, cell-based
[19] = test system: H460; assay: Inhibition of P-gp in drug resistant human H460 cells assessed as reduction in cell viability measured after 48 hrs by sulforhodamine B assay; assay type: cell-based
[20] = Down regulation of cyclin B1 expression in doxorubicin resistant human K562 cells at 2.7 to 5.4 uM measured after 48 hrs by Western blot method; assay type: functional, cell-based
[21] = test system: K562; assay: Induction of apoptosis in doxorubicin resistant human K562 cells at 2.7 uM by Annexin V-FITC/propidium iodide staining based flow cytometry; assay type: functional
[22] = Cell cycle arrest in doxorubicin resistant human K562 cells assessed as decrease in S phase at 2.7 uM measured after 48 hrs by propidium iodide staining based flow cytometry; assay type: functional
[23] = Stability of the compound at 4 degreeC at 10^-4 M incubated for 6 to 12 days under dark condition by HPLC method; assay type: physicochemical; conditions: 100 µM
[24] = Chemical stability of the compound in pH 5 sodium acetate buffer at 10^-4 M incubated for overnight by HPLC method; assay type: physicochemical; conditions: pH 5, 100 µM
[25] = Chemical stability of the compound in pH 9.1 sodium boric acid buffer at 10^-4 M incubated for overnight by HPLC method; assay type: physicochemical; conditions: pH 9.1, 100 µM
[26] = Up regulation of p53 expression in doxorubicin resistant human K562 cells at 2.7 to 5.4 uM measured after 48 hrs by Western blot method; assay type: functional, cell-based
[27] = test system: K562; assay: Induction of apoptosis in doxorubicin resistant human K562 cells at 4.1 uM by Annexin V-FITC/propidium iodide staining based flow cytometry; assay type: functional
[28] = test system: K562; assay: Inhibition of P-gp in doxorubicin resistant human K562 cells assessed as reduction in cell viability measured after 48 hrs by SRB assay; assay type: cell-based
[29] = Cell cycle arrest in doxorubicin resistant human K562 cells assessed as decrease in G0/G1 phase at 20 uM measured after 48 hrs by propidium iodide staining based flow cytometry; assay type: functional
[30] = Cell cycle arrest in doxorubicin resistant human K562 cells assessed as accumulation at G0/G1 phase at 30 to 40 uM measured after 48 hrs by propidium iodide staining based flow cytometry; assay type: functional
[31] = Cell cycle arrest in doxorubicin resistant human K562 cells assessed as decrease in G2/M phase at 30 to 40 uM measured after 48 hrs by propidium iodide staining based flow cytometry; assay type: functional
[32] = test system: K562; assay: Induction of apoptosis in doxorubicin resistant human K562 cells at 30 uM by Annexin V-FITC/propidium iodide staining based flow cytometry; assay type: functional
[33] = test system: K562; assay: Induction of apoptosis in doxorubicin resistant human K562 cells at 40 uM by Annexin V-FITC/propidium iodide staining based flow cytometry; assay type: functional
[34] = Cell cycle arrest in doxorubicin resistant human K562 cells assessed as decrease in S phase at 20 uM measured after 48 hrs by propidium iodide staining based flow cytometry; assay type: functional
[35] = test system: K562; assay: Induction of apoptosis in doxorubicin resistant human K562 cells assessed as increase in PARP-1 cleavage at 20 to 40 uM measured after 48 hrs by Western blot method; assay type: functional, cell-based
[36] = Down regulation of cyclin B1 expression in doxorubicin resistant human K562 cells at 20 to 40 uM measured after 48 hrs by Western blot method; assay type: functional, cell-based
[37] = Cell cycle arrest in doxorubicin resistant human K562 cells assessed as increase in G2/M phase at 20 uM measured after 48 hrs by propidium iodide staining based flow cytometry; assay type: functional
[38] = Up regulation of p53 expression in doxorubicin resistant human K562 cells at 20 to 40 uM measured after 48 hrs by Western blot method; assay type: functional, cell-based
[39] = test system: K562; assay: Induction of apoptosis in doxorubicin resistant human K562 cells decrease in pro-caspase 3 level at 20 to 40 uM measured after 48 hrs by Western blot method; assay type: functional, cell-based
[40] = Down regulation of p-gp expression in doxorubicin resistant human K562 cells at 20 to 30 uM measured after 48 hrs by Western blot method; assay type: functional, cell-based
[41] = test system: K562; assay: Induction of apoptosis in doxorubicin resistant human K562 cells at 20 uM by Annexin V-FITC/propidium iodide staining based flow cytometry; assay type: functional

| SMILES | Stability [1] | Stability [5] | GI50 [6] [µM] | GI50 [7] [µM] | Stability [9] | Stability [10] | Stability [11] | GI50 [12] [µM] | Stability [13] | Stability [14] | GI50 [19] [µM] | Stability [23] | Stability [24] | Stability [25] | also measured |
| --- | --- | --- | --- | --- | --- | --- | --- | --- | --- | --- | --- | --- | --- | --- | --- |
| C#CCOc1ccc(/C=C/C(=O)CC(=O)/C=C/c2ccc(OCC#C)c(OC)c2)cc1OC | Stable | Stable | 3.4 | 2.73 | Stable | Stable | Stable | 6.3 | Stable | Stable | 2.6 | Stable | Stable | Stable | inhibition [2]: Active; Activity [3]: Active; Activity [4]: Active; Activity [8]: Active; Activity [15]: Active; Activity [16]: 14.8%; Activity [17]: Active; Activity [18]: Active; Activity [20]: Active; Activity [21]: 9.3%; Activity [22]: Active; Activity [26]: Active; Activity [27]: 11.3% |
| COc1cc(/C=C/C(=O)/C=C/c2ccc(O)c(OC)c2)ccc1O | Stable | Stable | 1.47 | 20.7 | Stable | Unstable | Stable | 9.33 | Stable | Unstable | 1.8 | Unstable | Stable | Stable | – |
| COc1cc(/C=C/C(C)=O)ccc1OCc1cn(CCO[C@@H]2O[C@H](COC(C)=O)[C@H](OC(C)=O)[C@H](OC(C)=O)[C@H]2NC(C)=O)nn1 | – | – | > 150 | > 150 | – | – | – | > 150 | – | – | > 150 | – | – | – | – |
| COC(=O)COc1ccc(/C=C/C(C)=O)cc1OC | – | – | > 150 | > 150 | – | – | – | > 150 | – | – | > 150 | – | – | – | – |
| COc1cccc2c1C(=O)c1c(O)c3c(c(O)c1C2=O)C[C@@](O)(C(=O)CO)C[C@@H]3O[C@H]1C[C@H](N)[C@H](O)[C@H](C)O1 [DOXORUBICIN] | – | – | 0.02 | > 0.15 | – | – | – | 0.065 | – | – | > 0.15 | – | – | – | GI50 [28]: 11.6 µM |
| C=CCOc1ccc(/C=C/C(C)=O)cc1OC | – | – | 41.5 | 63.3 | – | – | – | 68.7 | – | – | 39.3 | – | – | – | – |
| COc1cc(/C=C/C(C)=O)ccc1OCCCNC(=O)OC(C)(C)C | – | – | 55.2 | > 150 | – | – | – | > 150 | – | – | 41 | – | – | – | inhibition [2]: Active |
| COc1cc(/C=C/C(=O)CC(=O)/C=C/c2ccc(O)c(OC)c2)ccc1O [CURCUMIN] | Unstable | Unstable | 27.3 | 19.7 | Stable | Stable | Unstable | 21.7 | Stable | Stable | 26 | Stable | Unstable | Unstable | Activity [29]: Active; Activity [30]: Active; Activity [31]: Active; Activity [32]: 26.9%; Activity [33]: 32%; Activity [34]: Active; Activity [35]: Active; Activity [36]: Active; Activity [37]: Active; Activity [38]: Active; Activity [39]: Active; Activity [40]: Active; Activity [41]: 11.8% |
| C#CCOc1ccc(/C=C/C(C)=O)cc1OC | – | – | 52.7 | 133 | – | – | – | > 150 | – | – | 41.7 | – | – | – | – |
| COc1cc(/C=C/C(=O)CC(=O)/C=C/c2ccc(OCc3cn(CCO[C@@H]4O[C@H](COC(C)=O)[C@H](OC(C)=O)[C@H](OC(C)=O)[C@H]4NC(C)=O)nn3)c(OC)c2)ccc1OCc1cn(CCO[C@@H]2O[C@H](COC(C)=O)[C@H](OC(C)=O)[C@H](OC(C)=O)[C@H]2NC(C)=O)nn1 | – | – | > 150 | > 150 | – | – | – | > 150 | – | – | > 150 | – | – | – | – |
| COc1cc(/C=C/C(C)=O)ccc1O [DEHYDROZINGERONE] | Stable | Stable | 64.8 | 92 | Stable | Stable | Stable | 85.3 | Stable | Stable | 62.7 | Stable | Stable | Stable | – |
| COc1ccc(CCN(C)CCCC(C#N)(c2ccc(OC)c(OC)c2)C(C)C)cc1OC (stereo not drawn) | – | – | – | – | – | – | – | – | – | – | – | – | – | – | inhibition [2]: Active |
